In US20260241012A1, “1,8-NAPHTHYRIDIN-2-ONE HETEROBIFUNCTIONAL BCL6 DEGRADERS” (Treeline Biosciences, Inc., priority 2022, published 2026):

Biological target: T1, N-terminal HiBiT tagged BCL6 (Homo sapiens, UniProt P41182)
T1 construct: expressed in transfected cells; host or cells: HT1080 (ATCC CCL-121), stably transduced with lentivirus pLV-UBC-N-HiBiT-BCL6-PGK-puro
Assay: HiBiT based degradation assay
Type: cell-based
Conditions: HT1080 cells expressing N-terminal HiBiT tagged BCL6, 5 hours of incubation; for Ymin (5 hr): BCL6 degradation normalized with DMSO control; for DC50: four-parameter logistic model, read-out: EC50 (5 hr)
How it was run: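 Degradation measured by luminescence from the Nano-Glo HiBiT lytic reagent (15 min, room temperature), normalized to DMSO controls and fitted to a four-parameter curve.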

Ymin (5 hr)	DC50 [nM]	Structure (SMILES)
++++ (Ymin < 30%)	< 10	CNC(=O)COc1cc2cc(Nc3nc(N4CCC(F)(CN5CCC(c6ccc7c(C8CCC(=O)NC8=O)nn(C)c7c6)CC5)CC4)ncc3Cl)cnc2n(C(C)C)c1=O (stereo not shown) [Compound 167, 2-[[6-[[5-chloro-2-[4-[[4-[3-(2,6-dioxo-3-piperidyl)-1-methyl-indazol-6-yl]-1-piperidyl]methyl]-4-fluoro-1-piperidyl]pyrimidin-4-yl]amino]-1-isopropyl-2-oxo-1,8-naphthyridin-3-yl]oxy]-N-methyl-acetamide]
+++ (30% ≤ Ymin < 50%)	< 10	CNC(=O)COc1cc2cc(Nc3nc(N4CCN(CC5CCN(c6ccc7c(C8CCC(=O)NC8=O)nn(C)c7c6)CC5)C[C@@H]4CO)ncc3Cl)cnc2n(C(C)C)c1=O (stereo partly drawn) [Compound 151a, 2-((6-((5-chloro-2-((2R)-4-((1-(3-(2,6-dioxopiperidin-3-yl)-1-methyl-1H-indazol-6-yl)piperidin-4-yl)methyl)-2-(hydroxymethyl)piperazin-1-yl)pyrimidin-4-yl)amino)-1-isopropyl-2-oxo-1,2-dihydro-1,8-naphthyridin-3-yl)oxy)-N-methylacetamide]
++++ (Ymin < 30%)	< 10	CNC(=O)COc1cc2cc(Nc3nc(N4CC5(CC[C@H](Oc6ccc7c(C8CCC(=O)NC8=O)nn(C)c7c6)[C@@H](C)C5)C4)ncc3Cl)cnc2n(C(C)C)c1=O (relative stereo) [Compound 185c, 2-[[6-[[5-chloro-2-[(6S,7S)-7-[3-(2,6-dioxo-3-piperidyl)-1-methyl-indazol-6-yl]oxy-6-methyl-2-azaspiro[3.5]nonan-2-yl]pyrimidin-4-yl]amino]-1-isopropyl-2-oxo-1,8-naphthyridin-3-yl]oxy]-N-methyl-acetamide]
+++ (30% ≤ Ymin < 50%)	< 10	CNC(=O)COc1cc2cc(Nc3nc(N4CCC(Oc5cccc6c(C7CCC(=O)NC7=O)nn(C)c56)CC4)ncc3Cl)cnc2n(C)c1=O (stereo not shown) [Compound 148, 2-((6-((5-chloro-2-(4-((3-(2,6-dioxopiperidin-3-yl)-1-methyl-1H-indazol-7-yl)oxy)piperidin-1-yl)pyrimidin-4-yl)amino)-1-methyl-2-oxo-1,2-dihydro-1,8-naphthyridin-3-yl)oxy)-N-methylacetamide]
+++ (30% ≤ Ymin < 50%)	10 to 100	CNC(=O)COc1cc2cc(Nc3nc(N4CCC([C@](C)(O)C5CCN(c6cccc7c(C8CCC(=O)NC8=O)nn(C)c67)CC5)CC4)ncc3Cl)cnc2n(C(C)C)c1=O (stereo in doubt) [Compound 194b, rel-2-((6-((5-chloro-2-(4-((1R)-1-(1-(3-(2,6-dioxopiperidin-3-yl)-1-methyl-1H-indazol-7-yl)piperidin-4-yl)-1-hydroxyethyl)piperidin-1-yl)pyrimidin-4-yl)amino)-1-isopropyl-2-oxo-1,2-dihydro-1,8-naphthyridin-3-yl)oxy)-N-methylacetamide]
++++ (Ymin < 30%)	10 to 100	CNC(=O)COc1cc2cc(Nc3nc(N4CC[C@@H](CN5CCN(c6cccc7c(C8CCC(=O)NC8=O)nn(C)c67)CC5)[C@H](F)C4)ncc3Cl)cnc2n(C(C)C)c1=O (relative stereo) [Compound 238a, 2-((6-((5-chloro-2-((3S,4S)-4-((4-(3-(2,6-dioxopiperidin-3-yl)-1-methyl-1H-indazol-7-yl)piperazin-1-yl)methyl)-3-fluoropiperidin-1-yl)pyrimidin-4-yl)amino)-1-isopropyl-2-oxo-1,2-dihydro-1,8-naphthyridin-3-yl)oxy)-N-methylacetamide]
++++ (Ymin < 30%)	10 to 100	CNC(=O)COc1cc2cc(Nc3cc(N4CCN(CC5CCN(c6cccc7c(C8CCC(=O)NC8=O)nn(C)c67)CC5)[C@H](CO)C4)ncc3Cl)cnc2n(C(C)C)c1=O (stereo partly drawn) [Compound 233a, 2-[[6-[[5-chloro-2-[(3S)-4-[[1-[3-(2,6-dioxo-3-piperidyl)-1-methyl-indazol-7-yl]-4-piperidyl]methyl]-3-(hydroxymethyl)piperazin-1-yl]-4-pyridyl]amino]-1-isopropyl-2-oxo-1,8-naphthyridin-3-yl]oxy]-N-methyl-acetamide]

More lines, now with the values behind:

Structure (SMILES)	Ymin (5 hr)	DC50 [nM]
CNC(=O)COc1cc2cc(Nc3nc(N4CC5(CC[C@@H](Oc6ccc7c(C8CCC(=O)NC8=O)nn(C)c7c6)[C@H](C)C5)C4)ncc3Cl)cnc2n(C(C)C)c1=O (relative stereo) [Compound 185d, 2-[[6-[[5-chloro-2-[(6R,7R)-7-[3-(2,6-dioxo-3-piperidyl)-1-methyl-indazol-6-yl]oxy-6-methyl-2-azaspiro[3.5]nonan-2-yl]pyrimidin-4-yl]amino]-1-isopropyl-2-oxo-1,8-naphthyridin-3-yl]oxy]-N-methyl-acetamide]	++++ (Ymin < 30%)	< 10
CNC(=O)COc1cc2cc(Nc3cc(N4CCN(CC5CCN(c6cccc7c(C8CCC(=O)NC8=O)nn(C)c67)CC5)CC4)ncc3Cl)cnc2n(C)c1=O (stereo not shown) [Compound 160, 2-((6-((5-chloro-2-(4-((1-(3-(2,6-dioxopiperidin-3-yl)-1-methyl-1H-indazol-7-yl)piperidin-4-yl)methyl)piperazin-1-yl)pyridin-4-yl)amino)-1-methyl-2-oxo-1,2-dihydro-1,8-naphthyridin-3-yl)oxy)-N-methylacetamide]	++++ (Ymin < 30%)	< 10
CNC(=O)COc1cc2cc(Nc3nc(N4CC5(CC(N(C)c6ccc7c(C8CCC(=O)NC8=O)nn(C)c7c6)C5)C4)ncc3Cl)cnc2n(C(C)C)c1=O (stereo not shown) [Compound 207, 2-[[6-[[5-chloro-2-[6-[[3-(2,6-dioxo-3-piperidyl)-1-methyl-indazol-6-yl]-methyl-amino]-2-azaspiro[3.3]heptan-2-yl]pyrimidin-4-yl]amino]-1-isopropyl-2-oxo-1,8-naphthyridin-3-yl]oxy]-N-methyl-acetamide]	+++ (30% ≤ Ymin < 50%)	< 10
CNC(=O)COc1cc2cc(Nc3nc(N4CCC(O)(CN5CCN(c6cccc7c(C8CCC(=O)NC8=O)nn(C)c67)CC5)CC4)ncc3Cl)cnc2n(C(C)C)c1=O (stereo not shown) [Compound 178, 2-[[6-[[5-chloro-2-[4-[[4-[3-(2,6-dioxo-3-piperidyl)-1-methyl-indazol-7-yl]piperazin-1-yl]methyl]-4-hydroxy-1-piperidyl]pyrimidin-4-yl]amino]-1-isopropyl-2-oxo-1,8-naphthyridin-3-yl]oxy]-N-methyl-acetamide]	+++ (30% ≤ Ymin < 50%)	< 10
CNC(=O)COc1cc2cc(Nc3nc(N4CC[C@H](CNc5ccc6c(C7CCC(=O)NC7=O)nn(C)c6c5)C4)ncc3Cl)cnc2n(C)c1=O (stereo partly drawn) [Compound 123a, 2-((6-((5-chloro-2-((3R)-3-(((3-(2,6-dioxopiperidin-3-yl)-1-methyl-1H-indazol-6-yl)amino)methyl)pyrrolidin-1-yl)pyrimidin-4-yl)amino)-1-methyl-2-oxo-1,2-dihydro-1,8-naphthyridin-3-yl)oxy)-N-methylacetamide]	++ (50% ≤ Ymin < 70%)	< 10
CNC(=O)COc1cc2cc(Nc3nc(N4CCC(O[C@H]5C[C@H](N6CCN(c7ccc8c(C9CCC(=O)NC9=O)nn(C)c8c7)CC6)C5)CC4)ncc3Cl)cnc2n(C(C)C)c1=O (stereo partly shown) [Compound 226a, 2-((6-((5-chloro-2-(4-((1r,3r)-3-(4-(3-(2,6-dioxopiperidin-3-yl)-1-methyl-1H-indazol-6-yl)piperazin-1-yl)cyclobutoxy)piperidin-1-yl)pyrimidin-4-yl)amino)-1-isopropyl-2-oxo-1,2-dihydro-1,8-naphthyridin-3-yl)oxy)-N-methylacetamide]	+++ (30% ≤ Ymin < 50%)	< 10
CNC(=O)COc1cc2cc(Nc3nc(N4CC5(CC[C@@H](Nc6cccc7c(C8CCC(=O)NC8=O)nn(C)c67)[C@@H](C)C5)C4)ncc3Cl)cnc2n(C)c1=O (relative stereo) [Compound 159b, 2-((6-((5-chloro-2-((6S,7R)-7-((3-(2,6-dioxopiperidin-3-yl)-1-methyl-1H-indazol-7-yl)amino)-6-methyl-2-azaspiro[3.5]nonan-2-yl)pyrimidin-4-yl)amino)-1-methyl-2-oxo-1,2-dihydro-1,8-naphthyridin-3-yl)oxy)-N-methylacetamide]	+++ (30% ≤ Ymin < 50%)	< 10
CNC(=O)COc1cc2cc(Nc3nc(N4CC5(CCC(Oc6ccc7c(C8CCC(=O)NC8=O)nn(C)c7c6)CC5)C4)ncc3Cl)cnc2n(C)c1=O (stereo not shown) [Compound 144, 2-((6-((5-chloro-2-(7-((3-(2,6-dioxopiperidin-3-yl)-1-methyl-1H-indazol-6-yl)oxy)-2-azaspiro[3.5]nonan-2-yl)pyrimidin-4-yl)amino)-1-methyl-2-oxo-1,2-dihydro-1,8-naphthyridin-3-yl)oxy)-N-methylacetamide]	++++ (Ymin < 30%)	< 10
CNC(=O)COc1cc2cc(Nc3nc(N4CCC(CC5CCN(c6ccc7c(C8CCC(=O)NC8=O)nn(C)c7c6)CC5)CC4)ncc3Cl)cnc2n(C)c1=O (stereo not shown) [Compound 140, 2-((6-((5-chloro-2-(4-((1-(3-(2,6-dioxopiperidin-3-yl)-1-methyl-1H-indazol-6-yl)piperidin-4-yl)methyl)piperidin-1-yl)pyrimidin-4-yl)amino)-1-methyl-2-oxo-1,2-dihydro-1,8-naphthyridin-3-yl)oxy)-N-methylacetamide]	+++ (30% ≤ Ymin < 50%)	< 10
CNC(=O)COc1cc2cc(Nc3nc(N4CC5(CC(Oc6ccc7c(C8CCC(=O)NC8=O)nn(C)c7c6)C5)C4)ncc3Cl)cnc2n(C(C)C)c1=O (stereo not shown) [Compound 213, 2-[[6-[[5-chloro-2-[6-[3-(2,6-dioxo-3-piperidyl)-1-methyl-indazol-6-yl]oxy-2-azaspiro[3.3]heptan-2-yl]pyrimidin-4-yl]amino]-1-isopropyl-2-oxo-1,8-naphthyridin-3-yl]oxy]-N-methyl-acetamide]	++++ (Ymin < 30%)	< 10
